The target in this experiment is T1, BK channels (Oryctolagus cuniculus, UniProt Q9BG98).
T1 construct: wherein the native BK channels were more sensitive to Ca^2+; from tissue
Description: Single channel recordings, inside-out patch clamp, voltage ramps, isolated smooth muscle cells of the rabbit bladder. The class given is cell-based. The settings on record: for ΔV1/2 (mV) in 100 nm Ca^2+: 10 μM compound, inside-out patch; for effect on BK channel activity, in words (SAR discussion based on V1/2 data): inside out patches on rabbit smooth muscle cells. The procedure:
All experiments were approved by the Dundalk Institute of Technology Animal Care and Use Committee. […] The urinary bladder and most proximal 1.5 cm of the urethra was removed and placed in Krebs solution. Strips of bladder tissue, 0.5 cm in width were dissected, cut into 1 mm^3 pieces and stored in Ca^2+-free Hanks' solution for 30 min prior to cell dispersal. Tissue pieces were incubated in dispersal medium containing (per 5 ml) of Ca^2+-free Hanks' solution: 15 mg collagenase (Sigma type 1A), 1 mg protease (Sigma type XXIV), 10 mg bovine serum albumin (Sigma) and 10 mg trypsin inhibitor (Sigma) for 10-15 min at 37° C. Tissue was then transferred to Ca^2+-free Hanks' solution and stirred for a further 10-15 min to release single smooth muscle cells. These were plated in Petri dishes containing 100 μM Ca^2+ Hanks' solution and stored at 4° C. for use within 8 h. During experiments, the dish containing the cells was continuously perfused with Hanks' solution at 36±1° C. Additionally the cell under study was continuously superfused by means of a custom built close delivery system with a pipette of tip diameter 200 μm placed approximately 300 μm from the cell. The high K^+ solution in the close delivery system could be switched to a drug-containing solution with a dead space time of less than 5 s.
For whole cell recordings pipettes were pulled from borosilicate glass capillary tubing (1.5 mm outer diameter, 1.17 mm inner diameter; Clark Medical Instruments) to a tip of diameter approximately 1-1.5 μm and resistance of 2-4 Mohms. For single channel recordings, pipettes were pulled from borosilicate glass capillary tubing (1.5 mm outer diameter, 0.8 mm inner diameter; Clark Medical Instruments) and fire polished before use. Voltage clamp commands were delivered via an Axopatch 1D or Axon 200B patch clamp amplifiers (Axon Instruments) and membrane currents were recorded by a 12 bit AD/DA converter (Axodata 1200 or Labmaster, Scientific Solutions) interfaced to an Intel computer running pCLAMP software.
All values in (mM): KCl, 140. Glucose, 10, EGTA 1 and HEPES, 10. For free Ca^2+ greater than 300 nM: All values in (mM): KCl, 140. Glucose, 10, H-EDTA 1 and HEPES, 10. The same solution composition is used in the bath as in the patch pipette for these experiments except that the pipette solution contained 100 nM Ca^2+.
In single channel experiments voltage commands were applied using pClamp ramped potentials. This allowed more efficient measurement of slope conductance and channel activation than conventional step depolarisations. Activation curves were calculated by averaging current responses to 15 potential ramps and dividing each data point of the averaged current by the single channel amplitude at that holding potential, after leakage current correction. […] This analysis provides a continuous recording of the number of open channels multiplied by the open probability (NPo) over the entire voltage range. To obtain values for the steepness of the voltage-dependent activation and half-maximal activation voltage, activation curves were fitted with Boltzman functions of the form: NPo=n/{1+exp[−K(V−V1/2)]} where N is the number of channels in the patch, n is the maximal NPo level, K^−1 is the steepness of the voltage-dependent activation (change in potential necessary to cause an e-fold increase in activation) and V1/2 is the voltage at which there is half-maximal activation. Again, all of the experiments were carried out at 36±1° C.
The patches were held at a potential of −100 mV and voltage ramps were then applied from −100 mV up to +100 mV over 2 s.
Patches were held at −100 mV and ramped through to +100 mV and each sweep was repeated 15 times. The same protocol was repeated after the patch was incubated in 1 μM Ca^2+.

T1 sequence (Q9BG98 whole entry): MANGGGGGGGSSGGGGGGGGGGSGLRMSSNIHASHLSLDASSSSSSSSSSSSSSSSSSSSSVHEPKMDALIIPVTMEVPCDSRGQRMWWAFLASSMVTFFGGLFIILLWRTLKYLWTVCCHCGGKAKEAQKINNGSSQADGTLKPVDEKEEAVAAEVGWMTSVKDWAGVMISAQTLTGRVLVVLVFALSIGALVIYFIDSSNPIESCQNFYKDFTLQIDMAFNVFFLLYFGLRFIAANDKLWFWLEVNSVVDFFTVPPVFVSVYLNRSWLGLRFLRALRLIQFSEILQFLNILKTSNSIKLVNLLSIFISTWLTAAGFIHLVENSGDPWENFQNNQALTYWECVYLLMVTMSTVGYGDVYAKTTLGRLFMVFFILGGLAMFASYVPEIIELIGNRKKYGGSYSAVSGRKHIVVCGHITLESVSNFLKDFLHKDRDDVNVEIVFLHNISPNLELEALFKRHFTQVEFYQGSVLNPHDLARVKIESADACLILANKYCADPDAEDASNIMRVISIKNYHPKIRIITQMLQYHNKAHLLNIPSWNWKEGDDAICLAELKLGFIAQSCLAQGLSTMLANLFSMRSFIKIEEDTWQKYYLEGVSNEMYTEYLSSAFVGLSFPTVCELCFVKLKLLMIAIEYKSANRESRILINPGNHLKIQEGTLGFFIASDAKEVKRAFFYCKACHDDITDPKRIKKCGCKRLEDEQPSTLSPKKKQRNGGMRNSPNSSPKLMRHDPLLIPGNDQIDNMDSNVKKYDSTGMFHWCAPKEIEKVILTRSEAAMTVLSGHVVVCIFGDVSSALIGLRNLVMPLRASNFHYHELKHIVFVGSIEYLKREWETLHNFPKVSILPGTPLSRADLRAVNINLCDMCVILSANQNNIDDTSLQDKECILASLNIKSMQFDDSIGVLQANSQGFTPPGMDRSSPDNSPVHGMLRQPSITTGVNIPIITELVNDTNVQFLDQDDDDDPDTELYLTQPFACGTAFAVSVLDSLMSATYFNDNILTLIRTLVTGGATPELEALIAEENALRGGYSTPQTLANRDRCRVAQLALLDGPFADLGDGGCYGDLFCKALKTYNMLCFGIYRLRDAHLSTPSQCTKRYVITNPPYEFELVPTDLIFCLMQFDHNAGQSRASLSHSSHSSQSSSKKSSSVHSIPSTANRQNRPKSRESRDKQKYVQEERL

Take `Nc1c(S(=O)(=O)[O-])cc(NC2CCCCC2)c2c1C(=O)c1ccccc1C2=O.[Na+]` [Acid Blue 62, sodium 1-amino-4-(cyclohexylamino)-9,10-dioxo-9,10-dihydroanthracene-2-sulfonate]: under “Table 1, V1/2 control vs drug”, the “ΔV1/2 (mV) in 100 nm Ca^2+” value is −54.37 mV.
Regarding `Nc1c(S(=O)(=O)O)cc(Br)c2c1C(=O)c1ccccc1C2=O` [Bromaminic acid, reference compound], the “effect on BK channel activity, in words (SAR discussion based on V1/2 data)” value (“effect on BK channel activity, in words” for short) is “inhibitory effect”.
As to `C=C(C)[C@H]1O[C@H]2CC[C@@]3(C)[C@@](O)(CC[C@H]4[C@@H]5OC(C)(C)[C@H]6C[C@@H]7C(=C)Cc8c(Cl)cc9[nH]c(c5c9c8[C@@]76O)[C@@]43C)[C@@]23O[C@H]3[C@H]1O` [Penitrem A, reference compound], the “effect on single channel openings” value (100 nM, 1 μM Ca2+, voltage ramp) is reported as “abolished the single channel openings”.
Turning to `Nc1c(S(=O)(=O)[O-])cc(NC2CCCC2)c2c1C(=O)c1ccccc1C2=O.[Na+]` [SR-5-8, sodium 1-amino-4-(cyclopentylamino)-9,10-dioxo-9,10-dihydroanthracene-2-sulfonate], the “ΔV1/2 (mV) in 100 nm Ca^2+” value (Table 1, V1/2 control vs drug) is on record as −24.24 mV.
Consider `COc1ccccc1Nc1cc(S(=O)(=O)[O-])c(N)c2c1C(=O)c1ccccc1C2=O.[Na+]` [SR-5-12, sodium 1-amino-4-(2-methoxyphenylamino)-9,10-dioxo-9,10-dihydroanthracene-2-sulfonate], for which, where the note is “Table 1, V1/2 control vs drug”, the “ΔV1/2 (mV) in 100 nm Ca^2+” value is reported as −54.1 mV.
Same read-out and setting: under `Nc1c(S(=O)(=O)[O-])cc(Nc2cc(F)cc(F)c2)c2c1C(=O)c1ccccc1C2=O.[Na+]` [SR-5-14, sodium 1-amino-4-(3,5-difluorophenylamino)-9,10-dioxo-9,10-dihydroanthracene-2-sulfonate] stands −24.2 mV; under `Nc1c(S(=O)(=O)[O-])cc(Nc2cccc(F)c2)c2c1C(=O)c1ccccc1C2=O.[Na+]` [SR-5-15, sodium 1-amino-4-(3-fluorophenylamino)-9,10-dioxo-9,10-dihydroanthracene-2-sulfonate], −28.4 mV.
For `Nc1c(S(=O)(=O)[O-])cc(Nc2cccc(S(=O)(=O)O)c2)c2c1C(=O)c1ccccc1C2=O.[Na+]` [SR-5-18, sodium 1-amino-9,10-dioxo-4-(3-sulfophenylamino)-9,10-dihydroanthracene-2-sulfonate], the “effect on BK channel activity, in words” value was “decreases the activity dramatically”. Besides, for the setting “Table 1, V1/2 control vs drug”, the “ΔV1/2 (mV) in 100 nm Ca^2+” value is listed as −23.2 mV.
Take `Cc1cccc(Nc2cc(S(=O)(=O)[O-])c(N)c3c2C(=O)c2ccccc2C3=O)c1.[Na+]` [SR-5-26, sodium 4-(m-toluidino)-1-amino-9,10-dioxo-9,10-dihydroanthracene-2-sulfonate]: for the setting “Table 1, V1/2 control vs drug”, the “ΔV1/2 (mV) in 100 nm Ca^2+” value was −53.5 mV.
On the same count and under the same terms, to `Nc1c(S(=O)(=O)[O-])cc(Nc2ccc(F)c(C(F)(F)F)c2)c2c1C(=O)c1ccccc1C2=O.[Na+]` [SR-5-28, sodium 1-amino-4-(4-fluoro-3-(trifluoromethyl)phenylamino)-9,10-dioxo-9,10-dihydroanthracene-2-sulfonate] belongs −83.2 mV; to `CCc1cccc(Nc2cc(S(=O)(=O)[O-])c(N)c3c2C(=O)c2ccccc2C3=O)c1.[Na+]` [SR-5-31, sodium 1-amino-4-(3-ethylphenylamino)-9,10-dioxo-9,10-dihydroanthracene-2-sulfonate], −87.1 mV.
On the same count and under the same terms, under `Nc1c(S(=O)(=O)[O-])cc(NC2CCCCCC2)c2c1C(=O)c1ccccc1C2=O.[Na+]` [SR-5-32, sodium 1-amino-4-(cycloheptylamino)-9,10-dioxo-9,10-dihydroanthracene-2-sulfonate] stands −61.1 mV; under `Nc1c(S(=O)(=O)[O-])cc(Nc2cccc(OC(F)(F)F)c2)c2c1C(=O)c1ccccc1C2=O.[Na+]` [SR-5-34, sodium 1-amino-9,10-dioxo-4-(3-(trifluoromethoxy)phenylamino)-9,10-dihydroanthracene-2-sulfonate], −84.0 mV.
Turning to `Nc1c(S(=O)(=O)[O-])cc(Nc2ccc(Cc3ccccc3)cc2)c2c1C(=O)c1ccccc1C2=O.[Na+]` [SR-5-37, sodium 1-amino-4-(4-benzylphenylamino)-9,10-dioxo-9,10-dihydroanthracene-2-sulfonate], the “effect on BK channel activity, in words” value is “BK channel openers”. Also, the “ΔV1/2 (mV) in 100 nm Ca^2+” value (Table 1, V1/2 control vs drug) is −77.8 mV.
Regarding `Nc1c(S(=O)(=O)[O-])cc(Nc2ccc(Cl)c(C(F)(F)F)c2)c2c1C(=O)c1ccccc1C2=O.[Na+]` [SR-5-40, sodium 1-amino-4-(4-chloro-3-(trifluoromethyl)phenylamino)-9,10-dioxo-9,10-dihydroanthracene-2-sulfonate], the “ΔV1/2 (mV) in 100 nm Ca^2+” value (Table 1, V1/2 control vs drug) is recorded as −97.8 mV.
On to `Cc1ccc(Nc2cc(S(=O)(=O)[O-])c(N)c3c2C(=O)c2ccccc2C3=O)cc1C(F)(F)F.[Na+]` [SR-5-44, sodium 1-amino-4-(4-methyl-3-(trifluoromethyl)phenylamino)-9,10-dioxo-9,10-dihydroanthracene-2-sulfonate], for which, under “Table 1, V1/2 control vs drug”, the “ΔV1/2 (mV) in 100 nm Ca^2+” value is listed as −145.4 mV.
Turning to `Nc1c(S(=O)(=O)[O-])cc(Nc2cccc(O)c2)c2c1C(=O)c1ccccc1C2=O.[Na+]` [SR-5-53, sodium 1-amino-4-((3-hydroxyphenyl)amino)-9,10-dioxo-9,10-dihydroanthracene-2-sulfonate], the “ΔV1/2 (mV) in 100 nm Ca^2+” value (Table 2) is recorded as −44.1 mV.
For the compound `CC(C)c1cccc(Nc2cc(S(=O)(=O)[O-])c(N)c3c2C(=O)c2ccccc2C3=O)c1.[Na+]` [SR-5-63, sodium 1-amino-4-((3-isopropylphenyl)amino)-9,10-dioxo-9,10-dihydroanthracene-2-sulfonate], the “effect on BK channel activity, in words” value was “BK channel agonists”. For the same compound, the “ΔV1/2 (mV) in 100 nm Ca^2+” value (Table 2) is −113.1 mV.
For `Nc1c(S(=O)(=O)[O-])cc(Nc2ccc3c(c2)CCC3)c2c1C(=O)c1ccccc1C2=O.[Na+]` [SR-5-64, sodium 1-amino-4-((2,3-dihydro-1H-inden-5-yl)amino)-9,10-dioxo-9,10-dihydroanthracene-2-sulfonate], the “ΔV1/2 (mV) in 100 nm Ca^2+” value (Table 2) is reported as −87.6 mV.
For `Nc1c(S(=O)(=O)[O-])cc(Nc2cccc3c2CCCC3)c2c1C(=O)c1ccccc1C2=O.[Na+]` [SR-5-65, sodium 1-amino-9,10-dioxo-4-((5,6,7,8-tetrahydronaphthalen-1-yl)amino)-9,10-dihydroanthracene-2-sulfonate], the “effect on BK channel activity, in words” value was “potent BK channel activator”. For the same compound, the “ΔV1/2 (mV) in 100 nm Ca^2+” value (Table 2) is −116.2 mV.
Consider `Nc1c(S(=O)(=O)[O-])cc(Nc2cccc3ccccc23)c2c1C(=O)c1ccccc1C2=O.[Na+]` [SR-5-66], for which the “effect on BK channel activity, in words” value is “potency was dropped substantially”. Where the note is “Table 2”, the “ΔV1/2 (mV) in 100 nm Ca^2+” value was −53.4 mV.
Regarding `Nc1c(S(=O)(=O)[O-])cc(Nc2cccc(Cc3ccccc3)c2)c2c1C(=O)c1ccccc1C2=O.[Na+]` [SR-5-68, sodium 1-amino-4-((3-benzylphenyl)amino)-9,10-dioxo-9,10-dihydroanthracene-2-sulfonate], the “effect on BK channel activity, in words” value is “BK channel agonists”. Besides, the “ΔV1/2 (mV) in 100 nm Ca^2+” value (Table 2) is on record as −120.0 mV.

The record behind these values is US9877940B2, “Anthraquinone compounds and their uses” (DUNDALK INSTITUTE OF TECHNOLOGY, priority 2010, dated 2018).
